# Measured values as given in paper PMC10788917 (Journal of Medicinal Chemistry, 2023).
# Tests used:
# HDAC8 Cys153Ser mutant = biological target: T1, HDAC8 Cys153Ser mutant (Homo sapiens, UniProt Q9BY41, C153S); assay: HDAC8 mutant biochemical assay; details: preincubation 1 h
# T1 construct: made in house
# SMC3 acetylation = assay: Western blot (immunoblot) in OCI-AML3 cells; type: cell-based; details: 72 h treatment
# Procedure: Cells (2 ×10^6) were seeded in 2 mL of medium in a six-well plate (Greiner) and treated with the desired concentration of the compounds. […] Protein concentrations were determined by the Bradford protein assay. Thirty micrograms of cell lysates per treatment was fractionated on sodium dodecyl sulfate–polyacrylamide gels and transferred to nitrocellulose membranes (Cytiva).
# HDAC8 = biological target: T2, HDAC8 (Homo sapiens, UniProt Q9BY41); assay: Kinetic parameters of inactivation from time-dependent IC50; type: biochemical
# T2 construct: one additional N-terminal residue 'H' (His) (N)
# T2 sequence (Q9BY41 1-377): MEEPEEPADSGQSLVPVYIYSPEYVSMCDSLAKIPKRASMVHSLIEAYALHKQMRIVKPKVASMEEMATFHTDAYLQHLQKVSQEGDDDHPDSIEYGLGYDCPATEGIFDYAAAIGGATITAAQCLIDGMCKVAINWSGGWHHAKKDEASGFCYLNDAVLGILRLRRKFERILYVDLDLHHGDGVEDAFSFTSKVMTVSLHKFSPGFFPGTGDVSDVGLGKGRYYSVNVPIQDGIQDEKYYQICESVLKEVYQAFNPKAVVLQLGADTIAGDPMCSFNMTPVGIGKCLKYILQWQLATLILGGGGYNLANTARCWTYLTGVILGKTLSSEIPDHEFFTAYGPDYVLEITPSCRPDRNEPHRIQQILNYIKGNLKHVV
# Procedure: Time-dependent IC50 values were obtained using the previously described enzyme activity assay after varying preincubation times.
# HL60 cells = assay: CellTiter-Blue cell viability assay; type: cell-based; details: Homo sapiens, HL-60; 72 h, Figure 7A
# Procedure: All cell lines were purchased from DSMZ (Braunschweig, Germany). The cell lines were regularly tested to exclude mycoplasma contamination and authenticated. Cell lines were grown at 37 °C and 5% CO2 in RPMI 1640 medium (Gibco, Thermo Fisher Scientific). Media were supplemented with 10% fetal calf serum (FCS), 10 units/mL penicillin, 10 μg/mL streptomycin, and 2 mM L-glutamine (all Gibco, Thermo Fisher Scientific).
# To determine the IC50 of the selected compounds on the cell lines, the CellTiter-Blue cell viability assay (Promega) was performed. For this, cells were seeded in 96-well flat-bottom plates at a cell density of 10 000 cells/well. Cells were treated in triplicate with the compound of interest at various concentrations or with 10 μM Bortezomib (S1013; Selleck Chemicals, Houston, TX), as a positive control. The cell viability of treated cell lines was measured using CellTiter-Blue after incubation for 72 h. Plates were measured using a GloMax plate reader (Promega), and IC50 values were determined by nonlinear regression using GraphPad Prism version 9.1.1 (GraphPad Software, Inc.), and the data are reported as mean values ± the standard error of the mean.
# HDAC4 = HDAC4 (Homo sapiens, UniProt P56524); assay: HDAC4 biochemical assay; details: preincubation 1 h, 1 nM HDAC4
# Procedure: The enzyme activity assay was performed in assay buffer [25 mM Tris-HCl (pH 8.0), 50 mM NaCl, and 0.001% (v/v) Pluronic F-68] in black half-area 96-well microplates (Greiner Bio-One). […] The reaction was initiated by the addition of 20 μM Boc-Lys(TFA)-AMC (Bachem). […] The deacetylated substrate was cleaved with 0.42 mg/mL trypsin to release fluorescent 7-amino-4-methylcoumarin (AMC), which was detected with a microplate reader (PHERAstar FS […]) with fluorescence excitation at 360 nm and emission at 460 nm. IC50 values were calculated by generating dose–response curves in GraphPad Prism 6 and fitting those to a four-parameter logistic model.
# T1 sequence (Q9BY41 whole entry C153S): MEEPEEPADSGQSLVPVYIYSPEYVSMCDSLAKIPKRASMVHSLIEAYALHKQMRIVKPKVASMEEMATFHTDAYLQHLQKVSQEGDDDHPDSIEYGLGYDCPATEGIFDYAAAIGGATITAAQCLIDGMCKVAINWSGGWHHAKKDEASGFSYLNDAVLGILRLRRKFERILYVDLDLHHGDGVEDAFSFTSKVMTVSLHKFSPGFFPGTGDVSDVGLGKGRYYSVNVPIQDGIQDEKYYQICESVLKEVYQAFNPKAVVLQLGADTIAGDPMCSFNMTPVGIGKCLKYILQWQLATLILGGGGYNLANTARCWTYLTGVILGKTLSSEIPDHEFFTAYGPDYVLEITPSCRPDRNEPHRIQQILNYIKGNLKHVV
# HDAC4, sequence (P56524 whole entry, species assumed): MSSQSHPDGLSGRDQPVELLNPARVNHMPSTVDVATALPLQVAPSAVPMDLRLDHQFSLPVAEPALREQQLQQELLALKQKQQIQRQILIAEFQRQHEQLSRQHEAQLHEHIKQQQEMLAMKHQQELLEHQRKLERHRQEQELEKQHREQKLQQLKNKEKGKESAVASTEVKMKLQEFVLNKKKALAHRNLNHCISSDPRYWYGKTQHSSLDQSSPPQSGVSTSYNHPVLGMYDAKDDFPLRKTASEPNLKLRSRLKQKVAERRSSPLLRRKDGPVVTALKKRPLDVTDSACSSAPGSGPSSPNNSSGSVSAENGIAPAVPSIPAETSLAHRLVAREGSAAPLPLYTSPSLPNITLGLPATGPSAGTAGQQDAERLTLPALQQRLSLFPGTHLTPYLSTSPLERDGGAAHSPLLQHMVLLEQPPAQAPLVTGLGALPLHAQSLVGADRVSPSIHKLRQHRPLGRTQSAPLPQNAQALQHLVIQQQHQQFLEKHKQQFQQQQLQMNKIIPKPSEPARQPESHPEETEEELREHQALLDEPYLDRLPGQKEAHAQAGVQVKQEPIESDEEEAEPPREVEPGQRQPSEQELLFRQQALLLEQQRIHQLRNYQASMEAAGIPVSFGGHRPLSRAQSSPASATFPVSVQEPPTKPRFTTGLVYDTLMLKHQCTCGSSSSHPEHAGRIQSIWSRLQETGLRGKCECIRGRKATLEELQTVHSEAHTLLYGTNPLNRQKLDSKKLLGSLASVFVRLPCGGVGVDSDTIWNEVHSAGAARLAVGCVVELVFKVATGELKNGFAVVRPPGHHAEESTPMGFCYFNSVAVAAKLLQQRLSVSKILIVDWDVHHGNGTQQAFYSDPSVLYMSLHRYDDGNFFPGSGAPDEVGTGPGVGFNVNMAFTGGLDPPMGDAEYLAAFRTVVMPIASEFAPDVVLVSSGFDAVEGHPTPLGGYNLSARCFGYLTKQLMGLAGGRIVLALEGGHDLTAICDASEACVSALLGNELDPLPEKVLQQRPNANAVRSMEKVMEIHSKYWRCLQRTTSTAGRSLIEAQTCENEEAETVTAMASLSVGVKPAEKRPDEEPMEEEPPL
smiles,measurement,setting,value
"C#Cc1c[n+](C)ccc1NC(=O)CC(=O)N1Cc2ccccc2C1.[I-] [compound 3, 3-Ethynyl-4-[3-(isoindolin-2-yl)-3-oxopropanamido]-1-methylpyridin-1-ium Iodide]",IC50,HDAC8 Cys153Ser mutant,58.8 µM
same,concentration inducing an increased level of SMC3 acetylation,SMC3 acetylation,10 µM
same,effect on HDAC8 levels,SMC3 acetylation,not influencing HDAC8 levels
same,kinact/KI,HDAC8; HDAC8,1570 M⁻¹ s⁻¹
same,Ki,"HDAC8; HDAC8, inactivation constant",3.2 µM
same,kinact,"HDAC8; HDAC8, time-dependent IC50, Krippendorff approach",0.0051 s⁻¹
same,IC50,HL60 cells,161 µM
same,IC50,HDAC4,23.1 µM
